# Assay results published in US5962314A, “Calcium receptor-active molecules” (priority 1997, dated 1999).
# Entries after “also recorded” stand apart in the source; their conditions may differ.
# Assays:
# C-cell calcium receptor = molecular target: T1, C-cell calcium receptor (Rattus norvegicus, UniProt P48442); assay type: cell-based; details: Table 6; rMTC 6-23 cells, fura-2
# T1 construct: Neoplastic C-cells derived from a rat medullary thyroid carcinoma (rMTC 6-23); host or cells: rMTC 6-23 cells
# T1 sequence (P48442 20-1079): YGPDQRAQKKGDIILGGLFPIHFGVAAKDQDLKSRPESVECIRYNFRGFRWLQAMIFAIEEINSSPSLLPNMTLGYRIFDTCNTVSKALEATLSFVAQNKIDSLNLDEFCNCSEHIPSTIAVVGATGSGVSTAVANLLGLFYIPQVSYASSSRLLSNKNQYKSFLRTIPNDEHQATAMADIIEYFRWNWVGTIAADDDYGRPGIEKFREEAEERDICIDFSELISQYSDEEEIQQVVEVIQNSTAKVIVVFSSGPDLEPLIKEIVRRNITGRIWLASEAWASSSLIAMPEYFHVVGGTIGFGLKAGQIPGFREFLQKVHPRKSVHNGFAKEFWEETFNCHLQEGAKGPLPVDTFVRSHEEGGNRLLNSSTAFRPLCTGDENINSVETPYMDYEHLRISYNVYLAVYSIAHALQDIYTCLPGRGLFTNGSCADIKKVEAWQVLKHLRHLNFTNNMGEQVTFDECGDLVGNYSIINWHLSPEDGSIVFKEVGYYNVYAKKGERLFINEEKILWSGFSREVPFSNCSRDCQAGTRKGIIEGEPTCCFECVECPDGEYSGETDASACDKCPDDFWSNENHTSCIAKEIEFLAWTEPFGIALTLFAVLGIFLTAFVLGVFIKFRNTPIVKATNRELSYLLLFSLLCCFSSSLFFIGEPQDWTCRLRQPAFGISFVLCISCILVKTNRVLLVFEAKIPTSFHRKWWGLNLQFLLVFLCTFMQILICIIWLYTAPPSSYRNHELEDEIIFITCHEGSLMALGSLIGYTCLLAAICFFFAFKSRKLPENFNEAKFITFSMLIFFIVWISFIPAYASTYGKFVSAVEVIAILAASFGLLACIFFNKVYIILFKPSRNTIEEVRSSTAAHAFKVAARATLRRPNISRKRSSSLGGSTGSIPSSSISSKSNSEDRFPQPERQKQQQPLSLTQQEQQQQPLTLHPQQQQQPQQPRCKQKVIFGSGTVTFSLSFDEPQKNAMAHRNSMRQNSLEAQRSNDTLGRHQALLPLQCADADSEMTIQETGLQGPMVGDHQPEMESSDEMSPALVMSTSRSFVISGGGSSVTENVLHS
# From the text: To assess the effects of molecular polycations on C-cells, a neoplastic cell line, derived from a rat medullary thyroid carcinoma (rMTC 6-23 cells) was used.
# [1] = test system: parathyroid cell calcium receptor; assay: Cl- current in Xenopus oocytes injected with bovine parathyroid cell mRNA; assay type: cell-based; details: 30 μM; oocytes injected with parathyroid cell mRNA
# Description: Following incubation, an oocyte was placed into a 100-μl plastic chamber and superfused with MBS at a flow rate of 0.5 ml/min using a peristaltic pump. Test molecules or inorganic polycations were added by rapidly moving the tubing into different buffers. Recording and current-passing electrodes were constructed from thin-wall capillary tubing pulled to a resistance of 1-3 Mohms and filled with 3 M KCl. […] Currents were recorded directly onto a strip chart recorder.
# [2] = molecular target: T2, human parathyroid cell calcium receptor (Homo sapiens, UniProt P41180); assay: Cl- current in Xenopus oocytes expressing human parathyroid cell calcium receptor; assay type: cell-based
# T2 construct: T7 cRNA injected into Xenopus oocytes
# T2 sequence (P41180 with tags, fused parts or gaps INS536PLTFVLSVLQ/Q926R/E1011Q): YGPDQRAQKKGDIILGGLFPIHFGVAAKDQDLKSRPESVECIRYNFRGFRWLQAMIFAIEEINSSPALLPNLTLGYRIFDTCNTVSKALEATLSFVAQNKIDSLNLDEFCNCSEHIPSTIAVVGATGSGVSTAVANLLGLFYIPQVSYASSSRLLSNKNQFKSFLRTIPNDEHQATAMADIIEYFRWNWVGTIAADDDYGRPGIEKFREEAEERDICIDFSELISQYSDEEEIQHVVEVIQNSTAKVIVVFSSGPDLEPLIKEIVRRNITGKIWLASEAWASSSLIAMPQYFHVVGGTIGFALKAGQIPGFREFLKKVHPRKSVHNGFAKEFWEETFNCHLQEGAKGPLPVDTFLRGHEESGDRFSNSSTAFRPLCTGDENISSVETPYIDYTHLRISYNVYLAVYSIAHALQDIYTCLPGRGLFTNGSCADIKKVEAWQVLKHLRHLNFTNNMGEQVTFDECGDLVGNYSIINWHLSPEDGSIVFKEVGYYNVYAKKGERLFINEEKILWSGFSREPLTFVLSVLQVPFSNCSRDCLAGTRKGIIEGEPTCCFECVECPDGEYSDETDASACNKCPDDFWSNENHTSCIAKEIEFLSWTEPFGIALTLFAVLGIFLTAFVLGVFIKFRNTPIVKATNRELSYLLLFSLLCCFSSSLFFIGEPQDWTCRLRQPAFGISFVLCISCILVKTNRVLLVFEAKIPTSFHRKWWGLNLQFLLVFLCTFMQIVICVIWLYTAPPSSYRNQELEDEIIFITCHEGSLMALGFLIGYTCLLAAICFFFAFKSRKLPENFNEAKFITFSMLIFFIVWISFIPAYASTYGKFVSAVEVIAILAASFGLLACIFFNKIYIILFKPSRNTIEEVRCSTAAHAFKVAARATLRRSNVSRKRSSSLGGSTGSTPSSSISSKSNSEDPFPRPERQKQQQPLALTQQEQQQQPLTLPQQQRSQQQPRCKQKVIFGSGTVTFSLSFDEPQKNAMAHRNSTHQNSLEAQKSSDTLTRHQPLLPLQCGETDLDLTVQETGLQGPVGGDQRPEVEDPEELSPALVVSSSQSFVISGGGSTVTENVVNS
# Description: Representative cDNA inserts for both size classes were subcloned into the plasmid vector pBluescript SK. Linearization followed by in vitro transcription using T7 RNA polymerase produced cRNA transcripts. The cRNA transcripts were injected into Xenopus oocytes (150 ng/μl RNA; 50 nl/oocyte) for functional analysis. Following incubation periods of 2-4 days, the oocytes were assayed for the presence of functional calcium receptors. Both clone types gave rise to functional calcium receptors as assessed by the stimulation of calcium-activated chloride currents upon addition of appropriate calcium receptor agonists. […] Thus, both clones encode a functional, human parathyroid cell calcium receptor.
# Xenopus oocytes were injected with pHuPCaR 5.2, the 5.2 Kb cDNA encoding a parathyroid cell calcium receptor derived from a human parathyroid cell adenoma. (See Example 27.) After two to three days, Cl^- currents were measured in the oocytes using a two-electrode voltage clamp.
# serum ionized calcium [3] = assay: serum ionized Ca2+ in rats; assay type: in vivo, rat; details: for effect on serum or whole blood Ca2+: NPS 467 i.p., low calcium diet
# Description: (§1) Compounds shown to activate the bovine parathyroid cell calcium receptor in vitro were tested for hypocalcemic activity in vivo. Male Sprague-Dawley rats (200 g) were maintained on a low calcium diet for one week prior to receiving test substance or vehicle as control. Blood was collected from the tail vein three hours after the intra-peritoneal administration of NPS 467. […] Serum total calcium, albumin and phosphate were measured by techniques well known in the art.
# Rats (male, Sprague-Dawley, 250-300 g) were fed standard rat chow and fasted overnight prior to the experiment. NPS R-467 was suspended in corn oil and administered as a single oral dose through a gavage needle. Three hours later a sample of blood was taken from the tail vein and assessed for ionized Ca^2+ levels.
# serum ionized calcium [4] = assay: serum ionized Ca2+ in parathyroidectomized rats; assay type: in vivo, rat; details: NPS R-467 10 mg/kg i.p., 6 hours; NPS R-568 oral
# From the text: To determine the primary target tissue upon which NPS R-467 acts to cause a hypocalcemic response, the parathyroid glands in rats were surgically removed. Animals receiving a total parathyroidectomy become hypocalcemic and are largely dependent upon dietary calcium to maintain serum Ca^2+ homeostasis.
# [5] = test system: human parathyroid calcium receptor; assay: intracellular calcium in HEK293 cells stably transfected with human calcium receptor; assay type: cell-based; details: Ca2+ 10 mM; Mg2+ 20 mM; HuPCaR 5.2
# Description: Different cells were tested for response to pure stereoisomers and racemic mixtures. […] Intracellular Ca^2+ was monitored using a fluorimeter. Each point on the graph represents the peak response (highest concentration of intracellular calcium achieved) to the addition of the indicated concentration of the indicated compound.
# Cells obtained from the pool of hygromycin selected HEK293 cells transfected with Cep4B containing the HuPCaR 5.2 insert were plated on collagen coated Aklar squares which had been placed into individual wells of 12-well tissue culture plates. Two to six days later, medium was removed and the cells washed with balanced salt solution and 1 ml of buffer containing 1 μM fura2-AM, 1 mM CaCl2 and 0.1% BSA and 1 mM CaCl2. Measurements of fluorescence in response to calcium receptor agonists were performed at 37° C. in a spectrofluorimeter using excitation and emission wavelengths of 340 and 510 nm, respectively. For signal calibration, Fmax was determined after addition of ionomycin (40 μM) and the apparent Fmin was determined by addition of 0.3 M EGTA, 2.5 M Tris-HCl; pH 10.
# Additional clonal isolates of HEK 293 cells transfected with pHuPCaR4.0 sequence were obtained. These were tested for responsiveness to calcimimetics as described above except that the cells were tested while in suspension. Similar positive results were obtained (FIG. 28b).
# PTH = PTH levels in rats; assay type: in vivo, rat; details: NPS 467, preliminary studies
# From the text: The fall in blood Ca^2+ at this time was paralleled by a proportional fall in the levels of blood total calcium.
# [6] = test system: serum albumin or phosphate; assay: serum albumin and phosphate in rats; assay type: in vivo, rat; details: i.p.
# Description: as §1
SMILES,EC50 (C-cell calcium receptor) [µM],effect on Cl- current [1],activation of oocyte-expressed receptor [2],"effect on serum ionized Ca2+, oral (serum ionized calcium [3]; NPS R-467 single oral dose, 3 hours)",effect on serum ionized Ca2+ in parathyroidectomized rats (serum ionized calcium [4]),increase in intracellular calcium [5],effect on serum or whole blood Ca2+ (serum ionized calcium [3]),effect on serum or whole blood Ca2+ (serum ionized calcium [3]; listed as NPS-467),effect on circulating PTH (PTH),effect on serum albumin or phosphate [6]
"COc1cccc([C@@H](C)NCCCc2ccccc2)c1 [NPS R-467, (R)-(+)-N-(3-phenylpropyl)-α-methyl-3-methoxybenzylamine]",2.2,rapid increase in Cl^-,activated the oocyte-expressed receptor at about the same concentrations,lowers serum ionized calcium; also recorded: dose-dependent reduction in serum levels of ionized Ca^2+,did not cause any change in serum ionized Ca^2+,Robust increases in intracellular calcium,–,–,–,–
COc1cccc(C(C)NCCCc2ccccc2)c1 (racemic) [NPS 467],–,–,–,–,–,–,maximal within three hours,dose-dependent reduction in serum or whole blood Ca^2+,dose-dependent reduction in circulating levels of PTH,no change in serum albumin or phosphate levels
